Patent publication US12186467B2, “Cleaning of biological fluid” (GAMBRO LUNDIA AB, priority 2012, dated 2025)
Each block holds one molecule with its values, some of them ahead of it.

What was measured:
[1] = Precipitation observed in displacer/BSA/p-cresol solutions; assay type: physicochemical
Protocol: The mixed solutions were centrifuged to remove protein at 5700 rpm for 70 minutes at room temperature before analysis. The pH was adjusted to 7 (physiological pH) by addition of NaOH to the samples. The samples were injected into a HPLC. The measurement of p-cresol by HPLC analysis was performed at room temperature.
The influence of the pH value on the binding affinity of the p-cresol and the binding competitors to the bovine serum albumin (BSA) was investigated. […] The pH was adjusted by adding sodium hydroxide (NaOH) or hydrochloric acid (HCl). The tests were performed with the following displacer substances: sodium salicylate, sodium octanoate and sodium acetylsalicylate. […] At pH 5 the albumin exists in the N form. The results are present in Table 4

[2] = molecular target: T1, bovine serum albumin (BSA) (Bos taurus, UniProt P02769); assay: Removal of p-cresol from BSA by repeated addition of water and centrifugation; assay type: binding; settings: pH 8
T1 construct: purchased Sigma-Aldrich
Protocol: The influence of water addition on the binding affinity of p-cresol to bovine serum albumin was investigated in this example, performed at room temperature. 1 ml of a solution comprising 0.02 mg/ml p-cresol and 40 mg/ml bovine serum albumin (BSA) was centrifuged (Visaspin®) for 20 minutes. 0.5 ml of the solution was removed and analysed.
0.5 ml water (Milli-Q quality) was added to the remaining 0.5 ml solution (p-cresol and BSA) and centrifuged (in Vivaspin®) for another 20 minutes before another 0.5 ml was removed for the analysis.
The previous experiment was repeated at elevated temperature. A 1 ml solution containing 0.02 mg/ml p-cresol and 40 mg/ml bovine serum albumin (BSA), pH 8, was centrifuged (Vivaspin®) at 50° C. for 20 minutes until 0.5 ml was removed and analysed. Then 0.5 ml water (Milli-Q) was added to the remaining 0.5 ml solution comprising p-cresol and BSA, centrifuged for 20 minutes until 0.5 ml was removed for the analysis.

T1 sequence (P02769 25-607): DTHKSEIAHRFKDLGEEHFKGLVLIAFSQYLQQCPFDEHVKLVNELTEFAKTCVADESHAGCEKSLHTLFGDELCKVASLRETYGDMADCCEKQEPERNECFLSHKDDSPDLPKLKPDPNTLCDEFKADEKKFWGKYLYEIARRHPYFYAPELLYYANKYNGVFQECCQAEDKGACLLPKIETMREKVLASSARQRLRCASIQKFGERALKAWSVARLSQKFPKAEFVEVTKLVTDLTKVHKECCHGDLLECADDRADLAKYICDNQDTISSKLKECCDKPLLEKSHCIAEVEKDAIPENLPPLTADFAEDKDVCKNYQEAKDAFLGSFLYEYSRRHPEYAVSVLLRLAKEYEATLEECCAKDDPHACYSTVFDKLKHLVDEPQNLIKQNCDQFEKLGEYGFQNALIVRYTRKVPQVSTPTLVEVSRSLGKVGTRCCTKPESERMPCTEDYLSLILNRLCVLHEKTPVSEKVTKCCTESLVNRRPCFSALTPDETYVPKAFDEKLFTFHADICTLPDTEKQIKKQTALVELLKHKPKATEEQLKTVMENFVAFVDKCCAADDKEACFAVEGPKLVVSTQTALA

precipitation ([1]; sodium octanoate 100 mg/ml and 200 mg/ml, pH 6): Precipitation occurred
SMILES: CCCCCCCC(=O)[O-].[Na+] [sodium octanoate]
precipitation ([1]; sodium octanoate with BSA and p-cresol, pH 5): precipitation of the solution was observed

p-cresol considered unbound ([2]; after addition of 5 ml water, 50° C.): About 100% | added p-cresol removed from the binding sites on BSA ([2]; water addition repeated 16 times, room temperature): ~100% | calculated amount of p-cresol removed ([2]; water addition repeated 16 times, room temperature, 0.02 mg p-cresol added): 0.01989 mg | measured amount of p-cresol ([2]; water addition repeated 20 times, 50° C., more than the added amount): 0.027 mg
SMILES: Cc1ccc(O)cc1 [p-cresol]

SMILES: O=C([O-])c1ccccc1O.[Na+] [sodium salicylate]
precipitation ([1]; sodium salicylate with BSA and p-cresol, pH 4): precipitation occurred
